Paper PMC8571521, “^19F-NMR reveals substrate specificity of CYP121A1 in Mycobacterium tuberculosis” (The Journal of Biological Chemistry, 2021)

Legend:
CYP121A1 [1] = molecular target: T1, CYP121A1 (Mycobacterium tuberculosis, UniProt P9WPP7, S171C); type: binding
T1 construct: gene cyp121

CYP121A1 [2] = molecular target: T2, CYP121A1 (Mycobacterium tuberculosis, UniProt P9WPP7, I166A/S171C/I180A); type: binding
T2 construct: gene cyp121

c1c[nH]cn1 [imidazole]
19F-NMR titration (25-200 mM) with stepwise Soret shift (CYP121A1 [1]): changes in the NMR spectra correlated closely with a stepwise shift in the Soret band of the protein | 19F-NMR titration with absorption (Soret) readout (CYP121A1 [2]): in the I166A_I180A mutant, we observed rapid saturation for both of the NMR and wavelength absorption outputs
